The target in the assay is Serine/threonine-protein phosphatase 5 (Homo sapiens) (UniProt P53041). Description: inhibitors of PP5c catalytic activity – biochemical, OMFP substrate, fluorescence, round 5, 1 µM low dose, late-stage follow-up (AID 624448). The settings on record: purified PP5c, OMFP dephosphorylation.

This note sets out measurements from PubChem BioAssay AID624448 (The Scripps Research Institute Molecular Screening Center, 2012).

Active and inactive are the calls of the source.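 How the source made its calls: active means PP5 phosphatase activity cut by at least half at the top 100 µM dose; inactive means less than half inhibition at 100 µM.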

Sequence of Serine/threonine-protein phosphatase 5 (Homo sapiens) (P53041 whole entry, looked up): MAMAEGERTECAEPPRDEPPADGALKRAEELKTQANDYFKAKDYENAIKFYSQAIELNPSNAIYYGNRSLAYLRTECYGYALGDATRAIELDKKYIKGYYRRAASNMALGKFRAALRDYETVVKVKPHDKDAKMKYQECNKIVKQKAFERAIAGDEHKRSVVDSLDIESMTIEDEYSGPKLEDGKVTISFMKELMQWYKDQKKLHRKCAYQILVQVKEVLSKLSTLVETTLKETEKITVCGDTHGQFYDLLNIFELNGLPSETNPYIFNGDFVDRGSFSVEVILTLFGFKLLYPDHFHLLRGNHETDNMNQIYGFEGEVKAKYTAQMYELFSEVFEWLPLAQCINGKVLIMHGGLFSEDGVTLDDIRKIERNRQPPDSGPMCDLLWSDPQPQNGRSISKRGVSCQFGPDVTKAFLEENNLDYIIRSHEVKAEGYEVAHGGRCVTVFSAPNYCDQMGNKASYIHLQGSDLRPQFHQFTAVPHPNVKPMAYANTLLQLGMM

As to `COC(=O)c1n[nH]nc1-c1ccccc1`, the IC50 (usually the midpoint of a concentration-inhibition curve) is > 100 µM (inactive). Regarding `O=C(O)c1nn(Cc2ccccc2)nc1Cl`, the IC50 was > 100 µM (inactive). For `Cc1n[nH]nc1C(=O)O` the value was > 100 µM (inactive). On to `O=C(O)c1cn(Cc2ccccc2)nn1`, for which the IC50 is > 100 µM (inactive). Regarding `O=C(O)c1cn[nH]n1`, the IC50 is > 100 µM (inactive).

Turning to `O=C(O)c1cn[nH]c1-c1ccccc1`, the IC50 was > 100 µM (inactive). On to `O=C(O)c1nnn(-c2ccccc2)c1-c1ccccc1`, for which the IC50 was > 100 µM (inactive).

Turning to `O=C(O)c1ncn[nH]1`, the IC50 is > 100 µM (inactive).
